Assay results: patent publication US20210228560A1 (Centogene IP GmbH, priority 2011, published 2021)
Numbering of substitutions follows the chain as printed. Like-named read-outs stand apart in the source and are kept apart here.

Experiments:
Format in all cases: cell-based
[1] = biological target: T1, wild type GLA (Homo sapiens, UniProt P06280)
T1 sequence (P06280 32-429): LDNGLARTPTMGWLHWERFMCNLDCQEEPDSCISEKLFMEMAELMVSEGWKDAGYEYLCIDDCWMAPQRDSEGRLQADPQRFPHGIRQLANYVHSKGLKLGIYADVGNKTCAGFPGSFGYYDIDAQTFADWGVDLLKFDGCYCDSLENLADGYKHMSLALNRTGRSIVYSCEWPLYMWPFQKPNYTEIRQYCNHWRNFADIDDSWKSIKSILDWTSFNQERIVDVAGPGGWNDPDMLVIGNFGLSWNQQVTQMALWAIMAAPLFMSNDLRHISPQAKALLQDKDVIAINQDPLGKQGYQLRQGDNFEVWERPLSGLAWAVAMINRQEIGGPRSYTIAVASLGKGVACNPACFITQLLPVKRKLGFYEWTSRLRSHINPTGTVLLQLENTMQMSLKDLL
Description: A bacterial clone containing the full length cDNA of α-galactosidase A (IRAUp969H0320D, aligned to accession no. NM_000169.2 (GeneBank)) was received form ImaGenes GmbH, Berlin, Germany. Amplification was performed with the primers 5′-[…] […]-3′ (SEQ ID NO:1) and 5′-[…]-3′ (SEQ ID NO:2) introducing unique restriction sites for BamHI and BstBI. The PCR was taken out using cloned Pfu DNA polymerase (Stratagene). The cDNA was subcloned into pGEM-T Easy vector (Promega). Prior to ligation, the cDNA insert was incubated with Taq polymerase (Qiagen) to add a poly (A) overhang at the 3′-end for TA-cloning. For expression, the α-Gal A cDNA was ligated into target vector pcDNA3.1/V5-His6 (Invitrogen).

[2] = biological target: T2, GLA[R301G] (Homo sapiens, UniProt P06280, R301G); conditions: 20 μM DGJ and 40 μM Ambroxol; untreated = 1.0; FIG. 5B
T2 sequence (P06280 32-429 R301G): T1 sequence (P06280 32-429) with R270G

[3] = biological target: acid α-glucosidase mutants (Homo sapiens, UniProt P10253, Y575S); conditions: NB-DNJ and Ambroxol combination; FIG. 7A
Chain of acid α-glucosidase mutants (Homo sapiens, UniProt P10253, Y575S) (P10253 70-952 Y575S): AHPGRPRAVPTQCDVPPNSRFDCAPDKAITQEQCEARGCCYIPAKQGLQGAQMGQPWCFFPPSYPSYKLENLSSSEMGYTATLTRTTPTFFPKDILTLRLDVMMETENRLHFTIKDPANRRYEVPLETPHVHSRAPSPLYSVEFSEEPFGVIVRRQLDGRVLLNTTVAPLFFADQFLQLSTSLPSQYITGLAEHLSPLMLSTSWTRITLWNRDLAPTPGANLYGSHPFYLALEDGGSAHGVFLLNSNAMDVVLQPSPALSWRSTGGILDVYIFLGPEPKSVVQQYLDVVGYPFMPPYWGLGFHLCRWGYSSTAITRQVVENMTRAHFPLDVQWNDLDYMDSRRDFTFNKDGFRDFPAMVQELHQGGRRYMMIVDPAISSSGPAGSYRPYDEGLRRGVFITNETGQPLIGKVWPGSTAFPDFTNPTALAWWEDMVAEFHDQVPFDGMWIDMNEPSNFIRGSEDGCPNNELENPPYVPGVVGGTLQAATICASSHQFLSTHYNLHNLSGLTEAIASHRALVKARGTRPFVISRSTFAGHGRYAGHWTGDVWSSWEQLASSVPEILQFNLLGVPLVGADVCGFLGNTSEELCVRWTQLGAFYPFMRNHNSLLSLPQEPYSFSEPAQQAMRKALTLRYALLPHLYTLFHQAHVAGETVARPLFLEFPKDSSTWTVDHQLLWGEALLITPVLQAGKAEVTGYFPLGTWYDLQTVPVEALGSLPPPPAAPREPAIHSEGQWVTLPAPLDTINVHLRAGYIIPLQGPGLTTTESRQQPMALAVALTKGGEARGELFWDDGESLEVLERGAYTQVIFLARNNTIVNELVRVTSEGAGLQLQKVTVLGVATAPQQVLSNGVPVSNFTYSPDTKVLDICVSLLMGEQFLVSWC
Description: (§1) A bacterial clone containing the full length cDNA of […] (IRATp970C0971D, aligned to accession no. NM_000152.3, GeneBank) was received form ImaGenes GmbH, Berlin, Germany. Amplification was performed with the primers 5′-TAGGAGCTGTCCAGGCCATC-3′ (SEQ ID NO:3) and 5′-GAGAGACTAACACACTCCGC-3′ (SEQ ID NO:4). The PCR was carried out using iProof DNA Polymerase (BioRad). The cDNA was subcloned into pCRII TA TOPO vector (Invitrogen). Prior to ligation, the cDNA insert was incubated with Taq polymerase (Qiagen) to add a poly (A) overhang at the 3′-end for TA-cloning. For expression, the GAA cDNA was ligated into target vector pcDNA3.1/V5-His6 (Invitrogen) using sticky end ligation utilizing unique restriction sites (HindIII, XhoI) offered by both vectors multiple cloning sites.
(§2) Sample preparation was carried out analogously to the α-galactosidase A recordings. As substrate, a 1.3 mg 4-Methylumbelliferyl-α-D-Glukopyranoside/ml solution (in sodium acetate buffer, pH 4.0) was used and 5 μg sample/reaction were added. The reaction was incubated for 60 minutes at 37° C. and stopped with 1M Glycine-NaOH, pH 10.5.

[4] = system: acid α-glucosidase mutants
Description: as §1, §2

[5] = biological target: T3, GLA[A156V] (Homo sapiens, UniProt P06280, A156V); conditions: untreated = 1.0, FIG. 5A
T3 sequence (P06280 32-429 A156V): T1 sequence (P06280 32-429) with A125V

enzyme activity of the GLA of the wild type ([1]; 40 μM Ambroxol alone, FIG. 1): increase in enzyme activity
inhibition of wild type GLA ([1]; Ambroxol dose-response, FIG. 2): not inhibiting
Ambroxol titer at or beyond which local maximum or saturation of wild type GLA activity ([1]; FIG. 2): > 60 µM
EC50 ([1]; read-out: EC50 of increase of wild type GLA activity): 21.2 µM
increase of GLA[R301G] activity [2]: 4.1 fold
increase of GLA[A156V] activity ([5]; 8 μM DGJ and 40 μM Ambroxol): 3.8 fold
increase of GLA[A156V] activity ([5]; 20 μM DGJ and 40 μM Ambroxol): up to 8 fold
SMILES: Nc1c(Br)cc(Br)cc1CN[C@H]1CC[C@H](O)CC1 [Ambroxol, 2-amino-3,5-dibromo-N-[trans-4-hydroxycyclohexyl]benzylamine]
responsiveness of mutation Y575S [3]: clear tendency to be responsive only towards the combination
activity of acid α-glucosidase, Ambroxol in combination with NB-DNJ ([4]; 20 μM NB-DNJ + 40 μM Ambroxol compared to 20 μM NB-DNJ alone, FIG. 7): enhanced
enzyme activity of mutations Y455F, P545L and L552P, combined treatment ([4]; 20 μM NB-DNJ and 40 μM Ambroxol, FIG. 7A): significantly increased
activity of mutant acid α-glucosidase, Ambroxol alone ([4]; 40 μM Ambroxol without chaperone): not leading to an enhancement
activity when additionally treated with Ambroxol ([4]; mutations Y455F, P545L and L552P, compared to NB-DNJ): tendency for higher activities
